The test system of experiment [1] is A/T rich, G/C rich and mixed sequence DNA oligonucleotides. Put plainly: SPA direct binding assay, sequence preference over panel of indicator oligonucleotides. From the text:
This technology can be applied to studies of ligand binding as disclosed herein. […] These beads are impregnated with scintillant. The second oligonucleotide is labeled with a weak β-emitter, such as ^3H or ^33P. The radioactive second oligonucleotide is mixed with a solution of the beads under conditions at which the first and second oligonucleotides exist primarily as single strands, as described above. The signal will thus be low, as the oligonucleotides are non-hybridized. When ligand is added, the duplex form is stabilized, and the increased proximity of the radioactive isotope (e.g., ^3H, ^33P) in the second oligonucleotide causes the bead to which the first oligonucleotide is bound to scintillate. A signal thus indicates the presence of an effective binding ligand molecule; test sequences giving higher signals indicate the relative preference for different sequences.
Indicator oligonucleotides as shown in Table 1 were used in this assay, as shown in Table II and FIGS. 4A-E. One strand of each duplex was labeled with biotin at the 5′-end, and the complementary strand was 3′-labeled with ^33P. The two complementary strands were incubated with streptavidin-coated SPA beads (Amersham, Arlington Heights, Ill.) at room temperature in a buffer containing 20 mM HEPES, pH 7.5, 0.1 mM EDTA, and 20 mM NaCl. In the absence of ligand, and under these conditions, the oligonucleotides exist in single-stranded conformation. As a result, the oligonucleotide containing the radioactive label is not in close proximity to the SPA bead, and the light given off by the beads is low, i.e., at background. As a duplex-stabilizing ligand is added, the radioactive ^33P is brought into close proximity to the SPA bead, and the light emitted from the SPA bead increases.

The test system of experiment [2] is RNA 5′-rCUAGAUCUGA-3′ (SEQ ID NO: 23) double stranded RNA probe. Put plainly: Fluorescence quenching direct binding assay, RNA. The note with it: change in fluorescence similar to single-stranded controls. Here is the method:
The specific examples described in this section employ fluorescence quenching as the detection system. In these examples, because conditions are adjusted to maintain the oligonucleotides in single-stranded form in the absence of the ligand, the assay starts with the system at a high or maximum level of fluorescence, and fluorescence generally decreases, depending on binding affinity, as the ligand is added.
In the Figure legends, RNA oligonucleotides are denoted by an “r” at the beginning of the sequence, and single stranded controls by “ss” at the end of the sequence. These single stranded sequence, are used alone in control experiments, which thus employ only an “F” strand and no complementary quenching strand. Any quenching of fluorescence that is not due to hybridization can thus be acounted for. Maximum quenching expected on complete hybridization of these oligonucleotides is 85-90%; therefore some signal remains after complete hybridization. The signal is plotted so that it is normalized to the control signal in the absence of ligand.
Netropsin has been shown in previous studies to bind preferentially to A/T rich regions of DNA. […] Netropsin also binds well to the sequence 5′-GCGGTATTT-3′ (SEQ ID NO: 12), which is a useful “indicator” probe (as discussed below), having both C/G and A/T rich sequences. […]

Experiment [3] deals with F/Q indicator duplex of SEQ ID NO: 75 and SEQ ID NO: 76. In words: Kinetic strand displacement assay (fluorescence quenching). It counts as binding. From the text:
This version of the assay is based on the displacement of a shorter strand within an indicator duplex by a longer strand. […] Again, a duplex of first and second sequences, as described above, is used, but in this assay, the strands differ in length, thus creating a single stranded overhang region. In a fluorescence quenching assay format, for example, the “F” strand is generally longer than the “Q” strand. In most cases, a minimum overhang region of about 4-20 nucleotides is effective to initiate strand displacement. Because a longer region will increase the rate of displacement, and it is generally desirable in the assay to reduce the rate of displacement, so as to facilitate measurement, this length of 4-20 nucleotides is generally preferred. A length of 5-7 nucleotides is particularly preferred.
The first and second strands are allowed to form a duplex in the absence of the ligand. In the present example, the “F” and “Q” groups are thus in proximity, giving a minimum level (when Q is a quenching group) of fluorescence. The displacing strand is added, and the rate of displacement, as indicated by an increase (or other change) in fluorescence over time, is observed (see FIG. 2). The experiment is then repeated in the presence of increasing amounts of ligand. A strongly binding ligand will stabilize the initial duplex and thus slow the rate of displacement. It is also expected that a ligand binding closer to the overhang site will also have a greater effect on inhibiting displacement.
The displacing strand, having SEQ ID NO: 77 (Table VI), is added, and the increase in fluorescence is observed over time. […] About 0.08 μM drug was effective to detectably slow the rate of displacement, and at 1.25-2.5 μM, the increase at 2 hrs was reduced to about 40%.
A mixture was formed of 60 nM of a fluorescein labeled 28-nucleotide strand having SEQ ID NO: 75 (Table VI) and 90 nM of a Dabcyl™-labeled 21-nucleotide quenching strand (SEQ ID NO: 76) in a buffer containing 20 mM HEPES, pH 7.5, 0.1 mM EDTA, and 30 mM NaCl. The control experiment contained no added drug; for subsequent experiment, increasing amounts of netropsin were added. To start the displacement reaction, the displacing strand (SEQ ID NO: 77) was added at concentrations of 35 nM to 60 nM. The fluorescence of the system was then monitored every 5 minutes for 90 to 120 minutes.
The initial rate of the displacement reaction was calculated from plots of fluorescence vs. time as the slope of the fluorescence curve from 0 to 60 minutes.
Additional experiments were carried out in which specific, unlabeled DNA competitor duplexes, whose sequences are shown in Table VII, were added to the assay mixture.

For `Cn1cc(NC(=O)c2cc(NC(=O)c3cc(NC=O)cn3C)cn2C)cc1C(=O)NCCC(=N)N` [Distamycin, distamycin], the “sequence preference of binding (FIGS. 4A-E)” value in experiment [1] (A/T rich 5′-AAAATAATAAAG, G/C rich 5′-GGCGCGG, mixed 5′-GTTGCAGATC, increasing drug) was “preference for A/T-rich and mixed sequences”. Besides, in experiment [1] (G/C-rich SEQ 6, A/T-rich SEQ 2, mixed SEQ 12 duplexes, 0, 100, 500 nM drug), the “duplex stabilization preference (Table II)” value is “preferentially stabilizes the A/T-rich duplex and the mixed duplex”.

As for `Cn1cc(NC(=O)c2cc(NC(=O)CN=C(N)N)cn2C)cc1C(=O)NCCC(=N)N` [Netropsin, netropsin], the “binding (decrease in fluorescence, FIG. 3A)” value in experiment [2] is recorded as “does not bind well”. Besides, the “effect of unlabeled competitor duplex on rate of displacement in presence of drug (FIG. 16)” value in experiment [3] (A/T rich competitor duplex SEQ ID NO: 78) is reported as “rate of displacement is increased by increasing amounts of the A/T rich competitor duplex”. Further, the “increase in fluorescence at 2 hrs” value in experiment [3] (at 1.25-2.5 μM netropsin, about 175% in absence of drug) was “about 40%”. In addition, the “drug concentration effective to detectably slow the rate of displacement (FIG. 14)” value in experiment [3] (displacing strand SEQ ID NO: 77) is reported as “About 0.08 μM”. In experiment [3] (initial rate = slope 0 to 60 minutes), the “drug concentration giving notable decrease in initial rate of displacement (FIG. 15)” value is recorded as “about 0.08 μM”.

The values are drawn from US6355428B1, “Nucleic acid ligand interaction assays” (Genelabs Technologies, Inc., priority 1998, dated 2002).
